Values quoted from earlier work, collected in patent US20260263393A1, “CO[…], […] COMBINATION WITH N-ACYLETHANOLAMINES, AND USES THEREOF” (Clearmind Labs Corp., priority 2023, published 2026).

Settings: ibogaine administered to treat drug dependence

In the case of `CC[C@H]1CC2C[C@H]3c4[nH]c5ccc(OC)cc5c4CC[N@@](C2)C13` [ibogaine, Ibogaine], the “reduction in drug craving (duration)” value is given as “up to several weeks” and the “sustained resolution of the withdrawal syndromes (time to)” value is given as 12 to 18 h.
